Test results from patent US20120122991A1, “METHOD FOR TREATING CANCER BY INCREASING AMP-ACTIVATED KINASE ACTIVITY” (Dana-Farber Cancer Institute, Inc., priority 2003, published 2012).

Tests used:
[1] = test system: tuberin; test: Tuberin mobility shift on SDS-PAGE in transfected HeLa cells; format: cell-based, human
Excerpt: FIG. 7A: In vitro kinase assay using FLAG-tagged tuberin as a substrate for LKB1-activated AMPK. Purified E. coli produced recombinant AMPK was activated by an in vitro kinase assay with wild-type LKB1, kinase-dead LKB1, or untransfected control immunoprecipitates then isolated and assayed for its ability to phosphorylate tuberin in vitro. FIG. 7B: Comparison of recombinant Akt-mediated tuberin phosphorylation in vitro to recombinant AMPK phosphorylation in vitro. Note that only AMPK-mediated phosphorylation induces a significant mobility shift in tuberin on SDS-PAGE. C: HeLa cells were co-transfected with FLAG-tagged tuberin, and empty vector or wild-type LKB1 and treated with 2 mM AICAR where indicated. Total cell lysates were then immunoblotted with anti-FLAG antisera to detect the introduced tuberin. Note the significant mobility shift induced by AICAR treatment of LKB1-expressing cells. […] FIG. 7D: HeLa cells were transfected with HA-tagged S6K1 and FLAG-tagged wild-type LKB1 along with empty vector, or dominant negative AMPK alpha1 (GST-tagged) or dominant negative AMPK alpha2 (myc tagged). Cells were treated with 2 mM AICAR for 2 h where indicated. HA-immunoprecipitates were immunoblotted with phospho-Thr389 S6K1 antisera to detect activated S6K1 and reprobed for total HA-S6K1 levels. […]

[2] = test system: HeLa cells; test: Cell survival (MTT assay, phase contrast) of HeLa cells stably expressing vector, WT or KD LKB1; format: cell-based, human; details: 2.5 mM AICAR, within 8 h
Method: Results are representative of four independent experiments. Cell viability was determined following AICAR or UV expressed as a percentage of untreated controls. Cell viability quantified by MTT assays run in triplicate on indicated HeLa stable cell lines treated with 2.5 mM AICAR or 50 j/cm^2 UV for 8 h. Results are representative of two independent experiments.
Kinase Assays and Cellular Analysis: AMPK kinase activity was measured using the SAMS peptide as previously described (7). LKB1 phosphorylation of AMPK was carried out in kinase buffer (50 mM Tris pH 7.5, 10 mM MgCl2, 1 mM DTT, 100 μM ATP) for 20 mins at 30° C. For immunopreciptations of active LKB1 kinase, Flag-tagged LKB1 was co-transfected with an equimolar amount of STRAD expression plasmid into HT1080 cells and immunoprecipitated using M2-agarose (Sigma) 24 h post-transfection in NP40 lysis buffer26. Before kinase assays, immunoprecipitated LKB1 was washed 3× in lysis buffer then 2× in kinase buffer. Soluble MBP-AMPK was added at 5 μg per kinase reaction. […]
To determine if LKB1 can mediate a biological response to a stimulus that activates the AMPKK/AMPK cascade we investigated whether LKB1 might modulate cell death under circumstances where AMPK would be activated. […] The extent of cell survival conferred by LKB1 reconstitution in the HeLa cells was quantified by MTT assay (FIG. 5b,c).

NC(=O)c1ncn([C@@H]2O[C@H](CO)[C@@H](O)[C@H]2O)c1N [AICAR, 5-aminoimidazole-4-carboxamide 1-β-D-ribofuranoside] was tested, and the “tuberin mobility on SDS-PAGE” value ([1]; HeLa cells expressing wild-type LKB1, 2 mM AICAR) was “significant reduction in tuberin mobility”, the “tuberin mobility on SDS-PAGE” value ([1]; HeLa cells in the absence of LKB1 expression, AICAR) was “no effect on tuberin mobility” and the cell death ([2]; vector control and kinase-dead LKB1 expressing HeLa cells) was “extensive cell death”. The cell viability ([2]; wild-type LKB1 expressing HeLa cells) was “nearly totally viable”.
